Assay results from patent publication US10604742B2, “Adsorptive membranes for trapping viruses” (Wisconsin Alumni Research Foundation, priority 2006, dated 2020).
Where two headings read alike, the source gives them in different places.

Tests used:
neutral virus φX174 [1] = assay: Function test 2: LRV for φX174 using functionalized membranes in flow mode, TE buffer pH 7.5; assay type: binding, bacteriophage φX174; conditions: for φX174 LRV: TE buffer pH 7.5
From the text: In these examples, the neutral virus φX174 is used because is one of five model non-pathogenic bacteriophage viruses commonly used in filtration studies to represent the gamut of physical properties of potential adventitious viruses of danger to humans (e.g., size, pI, presence or absence of a membrane). In short, the φX174 virus is an art-recognized virus for modeling viral clearance of dangerous pathogens.
Function test 2 measured the LRV for the neutral virus φX174 using the functionalized membranes in flow mode with TE buffer (10 mM Tris, 1 mM EDTA, pH 7.5) with and without added NaCl. Each ligand was immobilized onto regenerated cellulose membranes having 0.45 μm pore diameter using allyl glycidyl ether. The allylated membrane was then brominated. Lastly the ligand was coupled to the membrane via the primary amine on the ligand.

[2] = molecular target: bovine serum albumin (BSA) (Bos taurus, UniProt P02769); assay: Function test 1: static BSA binding capacity of ligand-functionalized regenerated cellulose membranes (BCA method); conditions: 20 mM piperazine, pH 6.0
Sequence of bovine serum albumin (BSA) (P02769 25-607): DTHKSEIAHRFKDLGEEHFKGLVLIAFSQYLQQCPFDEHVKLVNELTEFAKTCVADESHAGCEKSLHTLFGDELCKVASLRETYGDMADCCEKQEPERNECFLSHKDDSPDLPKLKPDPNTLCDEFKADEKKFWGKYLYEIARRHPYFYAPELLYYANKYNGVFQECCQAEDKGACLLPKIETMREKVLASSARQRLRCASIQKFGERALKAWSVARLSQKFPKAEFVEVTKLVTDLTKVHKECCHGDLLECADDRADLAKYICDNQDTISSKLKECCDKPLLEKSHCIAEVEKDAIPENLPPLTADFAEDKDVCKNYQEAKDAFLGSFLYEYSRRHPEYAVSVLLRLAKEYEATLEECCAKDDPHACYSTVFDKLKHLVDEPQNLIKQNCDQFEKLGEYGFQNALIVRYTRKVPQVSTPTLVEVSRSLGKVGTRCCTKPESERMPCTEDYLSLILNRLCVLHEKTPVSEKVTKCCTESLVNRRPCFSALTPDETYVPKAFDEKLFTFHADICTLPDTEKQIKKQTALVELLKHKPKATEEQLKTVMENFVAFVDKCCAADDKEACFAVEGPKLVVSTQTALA
Protocol: These ligands were evaluated using two different function tests. In the first function test, bovine serum albumin (BSA) in 20 mM piperazine, pH 6.0, with and without added NaCl, was incubated with a functionalized regenerated cellulose membrane. Bound BSA was then measured using the bicinchoninic acid (BCA) colorimetric method. Function test 1 measured the static protein binding capacity of the membranes under conditions where the pH was close to the isoelectric point of the protein (pI of BSA=5.1). In this function test, the protein had only a weak charge and was sensitive to added salt. This first function test was designed to mimic the binding of a neutral virus where the charge is weak.
Each ligand was immobilized onto regenerated cellulose membranes having 0.45 μm pore diameter using allyl glycidyl ether. The allylated membrane was then brominated. Lastly the ligand was coupled to the membrane via the primary amine on the ligand.

neutral virus φX174 [3] = assay: Example 3: φX174 clearance by AGM membrane in presence of basic protein ribonuclease A (FIG. 10); assay type: binding, bacteriophage φX174; conditions: 0.5 g/L ribonuclease A, TE buffer pH 7.5, with and without added NaCl
Protocol: FIG. 10 is a graph depicting the performance of a virus-trapping membrane containing the immobilized ligand agmatine to remove a neutral virus (φX174) from a solution comprising a basic protein (0.5 g/L ribonuclease) and different concentrations of salt (□=0 mM NaCl; ▴=50 mM NaCl; ▪=150 mM NaCl).
AGM, for example, meets these requirements. […] According to the methods of Example 2, a disposable, micro-porous, regenerated-cellulose virus-trapping membrane was fabricated containing the ligand AGM immobilized on the membrane. The basic protein ribonuclease A (pI˜9.5) was used as a mAb surrogate. A feed solution comprising the neutral virus φX174 and 0.5 g/L of the basic protein ribonuclease A, both dissolved in TE buffer (10 mM Tris, 1 mM EDTA, pH 7.5), with and without added NaCl, was loaded into the membrane. Viral clearance was not reduced by the presence of the basic protein.

[4] = cited from earlier work
φX174 = conditions: cited from earlier work
[5] = high-salt buffer (23 mS/cm); cited from earlier work

Compound	φX174 LRV (neutral virus φX174 [1]; 0 mM NaCl)	φX174 LRV (neutral virus φX174 [1]; 50 mM NaCl)	φX174 LRV (neutral virus φX174 [1]; 150 mM NaCl)	BSA Static Capacity ([2]; 0 mM NaCl) [mg/m^2]	BSA Static Capacity ([2]; 50 mM NaCl) [mg/m^2]	BSA Static Capacity ([2]; 150 mM NaCl) [mg/m^2]	viral clearance (LRV) of φX174 after adding the basic protein (neutral virus φX174 [3])	charge at neutral pH [4]	viral clearance of φX174 (LRV) (φX174; 0 mM salt)	viral clearance of φX174 (LRV) (φX174; 0 mM salt, listed as “MUSTANG”® Q-brand adsorptive ligand)	viral clearance of φX174 (LRV) (φX174; 50 mM salt)	viral clearance of φX174 (LRV) (φX174; 50 mM salt, listed as “MUSTANG”® Q-brand adsorptive ligand)	φX174 clearance (LRV) in the presence of salt (neutral virus φX174 [1]; in the presence of salt (50 and 150 mM))	salt tolerance of viral clearance (neutral virus φX174 [1]; moderate salt concentration)	pKa [4]	dynamic binding capacity greater than the average of the five best non-aromatic anion-exchange ligands [5] [%]	dynamic binding capacity relative to the Q ligand [5] [times]
NCCN(CCN)CCN [TAEA, tris(2-aminoethyl)amine]	7.6	5.8	5.1	–	–	–	–	–	–	–	–	–	–	–	–	–	–
NCC(O)c1ccc(O)cc1 (stereo not shown) [OCT, Octopamine]	5.4	1.1	0.7	280	290	250	–	–	–	–	–	–	–	–	–	–	–
N=C(N)NCCCCN [AGM, Agmatine]	5.5	5.5	5.9	1000	319	116	≈ 6.0	positive charge	–	–	–	–	–	–	–	–	–
N[C@H](CO)Cc1c[nH]c2ccccc12 [TRP, Tryptophanol]	5.4	1.1	1.0	668	297	131	–	–	–	–	–	–	–	–	–	–	–
C[N+](C)(C)CCN.[Cl-] [AETMA, 2-aminoethyltrimethylammonium chloride, reference compound]	6.6	0.1	0.1	551	42	10	–	–	six	6	1	less than 1 LRV	≈ 0.1	not salt tolerant	>12	–	–
N[C@H](CO)Cc1ccccc1 [PHA, Phenylalaninol]	2.8	0.1	0.0	330	46	10	–	–	–	–	–	–	–	–	–	–	–
Nc1nc2ccccc2[nH]1 [ABI, 2-aminobenzimidazole]	5.4	1.8	1.0	414	204	108	–	–	–	–	–	–	–	–	–	–	–
N[C@H](CO)Cc1ccc(O)cc1 [TYR, Tyrosinol]	6.4	2.7	0.9	638	284	137	–	positively charged	–	–	–	–	–	–	10.8	63	36
NCC(O)CN [DHP, 1,3-diamino-2-hydroxypropane]	5.4	2.1	0.1	946	392	85	–	–	–	–	–	–	–	–	–	–	–
